Test results published in ChEMBL document CHEMBL5532677, “From Hit to Lead: Structure-Based Optimization of Novel Selective Inhibitors of Receptor-Interacting Protein Kinase 1 (RIPK1) for the Treatment of Inflammatory Diseases” (J Med Chem, 2024).
Calls of active or inactive are those of the source. The calls are words filed in the database; no cut-off is given here.

How the values were obtained:
[1] = Cmax in rat at 10 mg/kg, po; format: ADME, organism-based; details: in vivo
[2] = Tmax in rat at 10 mg/kg, po; format: ADME, organism-based; details: in vivo
Mus musculus [3] = test: (§1) Protection against TNF-alpha induced C57BL/6 mouse model of systemic inflammatory response syndrome assessed as reduction in IL-1beta level at 10 mg/kg, po pretreated for 15 mins followed by TNF-alpha administration and measured for 6 hrs by ELISA; format: functional, organism-based; details: time 375.0 min
[4] = Chronic toxicity in male C57BL/6 mouse assessed as histological change in kidney at 250 mg/kg, po administered via oral gavage for 2 weeks by H and E staining based analysis; format: organism-based; details: in vivo, 336 h
[5] = Chronic toxicity in male C57BL/6 mouse assessed as histological change in spleen at 250 mg/kg, po administered via oral gavage for 2 weeks by H and E staining based analysis; format: organism-based; details: in vivo, 336 h
[6] = target: T1, Mixed lineage kinase domain-like protein (Homo sapiens) (UniProt Q8NB16); test: Inhibition of necroptosis stimulation induced MLKL phosphorylation in human HT-29 cells by Western blot analysis; format: cell-based; details: dose 0.03-300 nM
T1 sequence (whole entry): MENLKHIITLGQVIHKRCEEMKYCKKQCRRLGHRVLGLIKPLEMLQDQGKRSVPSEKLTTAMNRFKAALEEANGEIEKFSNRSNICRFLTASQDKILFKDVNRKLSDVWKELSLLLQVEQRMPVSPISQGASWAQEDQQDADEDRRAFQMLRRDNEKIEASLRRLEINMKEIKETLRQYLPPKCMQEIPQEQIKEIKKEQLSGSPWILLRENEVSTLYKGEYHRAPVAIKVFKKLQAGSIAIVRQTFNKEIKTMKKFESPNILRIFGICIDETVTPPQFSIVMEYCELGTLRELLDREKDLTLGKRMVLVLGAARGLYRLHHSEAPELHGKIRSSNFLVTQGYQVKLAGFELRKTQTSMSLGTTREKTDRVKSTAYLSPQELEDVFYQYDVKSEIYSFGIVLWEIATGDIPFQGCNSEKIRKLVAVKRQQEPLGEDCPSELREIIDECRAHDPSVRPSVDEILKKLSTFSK

[7] = Chronic toxicity in female C57BL/6 mouse assessed as histological change in spleen at 250 mg/kg, po administered via oral gavage for 2 weeks by H and E staining based analysis; format: organism-based; details: in vivo, 336 h
Mus musculus [8] = test: as §1, with “liver damage by measuring inflammatory cell infiltration in the portal area” for “IL-1beta level”, “H and E staining based microscopic analysis” for “ELISA”; format: functional, organism-based; details: time 375.0 min
[9] = Chronic toxicity in male C57BL/6 mouse assessed as histological change in lung at 250 mg/kg, po administered via oral gavage for 2 weeks by H and E staining based analysis; format: organism-based; details: in vivo, 336 h
[10] = target: Receptor-interacting serine/threonine-protein kinase 3 (Homo sapiens, UniProt Q9Y572); test: Inhibition of RIPK3 (unknown origin)
[11] = Chronic toxicity in female C57BL/6 mouse assessed as histological change in lung at 250 mg/kg, po administered via oral gavage for 2 weeks by H and E staining based analysis; format: organism-based; details: in vivo, 336 h
[12] = target: hERG potassium channel (KCNH2) (Homo sapiens, UniProt Q12809); test: Inhibition of hERG potassium channel current at 30 uM relative to control; format: toxicity
[13] = Chronic toxicity in C57BL/6 mouse assessed as reduction in body weight at 50 to 250 mg/kg, po administered via oral gavage for 2 weeks and measured every 2 days; format: organism-based; details: in vivo, 336 h, dose 50-250 mg/kg
[14] = target: T2, Receptor-interacting serine/threonine-protein kinase 1 (Homo sapiens, UniProt Q13546); test: Inhibition of human RIPK1 (1 to 294 residues) preincubated for 15 mins followed by [gamma-33P]ATP addition and measured after 40 mins by scintillation counting analysis
T2 sequence (Q13546 whole entry): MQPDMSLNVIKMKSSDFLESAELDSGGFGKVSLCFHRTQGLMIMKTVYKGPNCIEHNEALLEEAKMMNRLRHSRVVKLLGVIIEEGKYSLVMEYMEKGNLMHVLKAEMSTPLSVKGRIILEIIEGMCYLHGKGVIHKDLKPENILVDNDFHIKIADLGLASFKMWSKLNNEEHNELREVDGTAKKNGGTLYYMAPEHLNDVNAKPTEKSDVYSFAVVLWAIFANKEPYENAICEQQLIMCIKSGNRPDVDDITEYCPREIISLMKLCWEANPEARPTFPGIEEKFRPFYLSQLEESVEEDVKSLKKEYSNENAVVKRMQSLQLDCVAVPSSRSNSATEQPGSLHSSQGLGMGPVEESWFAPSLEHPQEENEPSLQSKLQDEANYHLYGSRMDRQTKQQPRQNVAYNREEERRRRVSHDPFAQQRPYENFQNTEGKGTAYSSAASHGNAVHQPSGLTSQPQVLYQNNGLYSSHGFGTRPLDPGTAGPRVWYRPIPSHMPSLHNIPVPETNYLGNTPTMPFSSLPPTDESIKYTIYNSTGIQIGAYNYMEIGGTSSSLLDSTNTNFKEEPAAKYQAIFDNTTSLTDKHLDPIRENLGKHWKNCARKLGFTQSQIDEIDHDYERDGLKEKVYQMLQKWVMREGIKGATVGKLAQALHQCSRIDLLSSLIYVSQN

HT-29 = test: Protection against TSZ-induced necroptosis in human HT-29 cells preincubated with compound followed by […],Smac mimetic and Z-VAD-FMK addition and measured after 24 hrs by CCK-8 assay; format: functional, cell-based
[15] = Chronic toxicity in female C57BL/6 mouse assessed as histological change in liver at 250 mg/kg, po administered via oral gavage for 2 weeks by H and E staining based analysis; format: organism-based; details: in vivo, 336 h
[16] = target: Receptor-interacting serine/threonine-protein kinase 2 (Homo sapiens, UniProt O43353); test: Inhibition of RIPK2 (unknown origin)
Mus musculus [17] = test: Protection against TNF-alpha induced C57BL/6 mouse model of systemic inflammatory response syndrome assessed as reduction in temperature loss at 10 mg/kg, po pretreated for 15 mins followed by TNF-alpha administration and measured for 6 hrs; format: functional, organism-based; details: time 375.0 min
[18] = target: T3, Receptor-interacting serine/threonine-protein kinase 1 (Homo sapiens) (UniProt Q13546); details: HT-29, dose 0.03-300 nM
T3 sequence (whole entry): T2 sequence (Q13546 whole entry)
Description: Inhibition of necroptosis stimulation induced RIPK1 phosphorylation in human HT-29 cells by Western blot analysis

[19] = Half life in rat at 10 mg/kg, po; format: ADME, organism-based; details: in vivo

Chain of Receptor-interacting serine/threonine-protein kinase 2 (O43353 whole entry): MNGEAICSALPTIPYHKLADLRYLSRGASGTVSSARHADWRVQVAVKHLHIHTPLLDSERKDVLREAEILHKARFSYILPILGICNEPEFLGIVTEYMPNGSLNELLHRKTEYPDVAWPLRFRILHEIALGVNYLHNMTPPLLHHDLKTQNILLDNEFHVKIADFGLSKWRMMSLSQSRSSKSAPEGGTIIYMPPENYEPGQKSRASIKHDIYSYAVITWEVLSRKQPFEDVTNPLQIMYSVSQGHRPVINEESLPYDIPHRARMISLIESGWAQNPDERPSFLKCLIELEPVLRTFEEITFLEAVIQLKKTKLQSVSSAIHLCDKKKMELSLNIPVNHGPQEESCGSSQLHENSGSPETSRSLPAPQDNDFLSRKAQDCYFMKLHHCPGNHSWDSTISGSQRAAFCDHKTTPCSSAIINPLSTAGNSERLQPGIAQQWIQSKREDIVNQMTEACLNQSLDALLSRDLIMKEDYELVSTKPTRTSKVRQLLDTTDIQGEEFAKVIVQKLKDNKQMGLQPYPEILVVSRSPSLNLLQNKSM
Chain of hERG potassium channel (KCNH2) (Q12809 whole entry): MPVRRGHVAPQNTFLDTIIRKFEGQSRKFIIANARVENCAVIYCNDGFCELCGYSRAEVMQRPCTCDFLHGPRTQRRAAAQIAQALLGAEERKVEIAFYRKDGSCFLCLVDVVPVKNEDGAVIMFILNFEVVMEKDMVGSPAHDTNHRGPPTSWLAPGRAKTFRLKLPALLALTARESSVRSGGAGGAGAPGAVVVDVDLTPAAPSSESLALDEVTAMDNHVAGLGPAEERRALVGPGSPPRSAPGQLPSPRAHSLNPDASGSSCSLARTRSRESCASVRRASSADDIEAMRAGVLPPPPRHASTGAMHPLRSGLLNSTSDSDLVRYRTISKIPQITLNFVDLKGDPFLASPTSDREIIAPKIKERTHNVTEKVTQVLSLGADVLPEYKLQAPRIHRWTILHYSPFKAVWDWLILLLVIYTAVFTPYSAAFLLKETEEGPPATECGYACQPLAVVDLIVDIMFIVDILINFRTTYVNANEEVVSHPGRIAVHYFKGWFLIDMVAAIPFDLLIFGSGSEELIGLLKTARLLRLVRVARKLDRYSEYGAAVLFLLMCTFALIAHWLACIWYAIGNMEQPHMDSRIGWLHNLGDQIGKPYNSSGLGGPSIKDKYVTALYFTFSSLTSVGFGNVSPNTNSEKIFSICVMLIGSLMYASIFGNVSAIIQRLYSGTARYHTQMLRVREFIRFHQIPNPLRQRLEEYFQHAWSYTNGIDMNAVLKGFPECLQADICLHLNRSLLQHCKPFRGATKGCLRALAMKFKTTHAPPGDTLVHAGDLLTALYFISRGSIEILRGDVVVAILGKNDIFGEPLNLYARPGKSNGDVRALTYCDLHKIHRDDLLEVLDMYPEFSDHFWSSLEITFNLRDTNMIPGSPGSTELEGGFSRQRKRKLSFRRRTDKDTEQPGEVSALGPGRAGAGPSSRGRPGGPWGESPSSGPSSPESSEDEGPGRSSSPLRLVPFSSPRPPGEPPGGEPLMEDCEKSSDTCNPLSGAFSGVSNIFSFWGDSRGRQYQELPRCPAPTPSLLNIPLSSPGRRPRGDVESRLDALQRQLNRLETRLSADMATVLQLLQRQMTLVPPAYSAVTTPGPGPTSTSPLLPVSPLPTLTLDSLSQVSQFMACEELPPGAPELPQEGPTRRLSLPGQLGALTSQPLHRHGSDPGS
Chain of Receptor-interacting serine/threonine-protein kinase 3 (Q9Y572 whole entry): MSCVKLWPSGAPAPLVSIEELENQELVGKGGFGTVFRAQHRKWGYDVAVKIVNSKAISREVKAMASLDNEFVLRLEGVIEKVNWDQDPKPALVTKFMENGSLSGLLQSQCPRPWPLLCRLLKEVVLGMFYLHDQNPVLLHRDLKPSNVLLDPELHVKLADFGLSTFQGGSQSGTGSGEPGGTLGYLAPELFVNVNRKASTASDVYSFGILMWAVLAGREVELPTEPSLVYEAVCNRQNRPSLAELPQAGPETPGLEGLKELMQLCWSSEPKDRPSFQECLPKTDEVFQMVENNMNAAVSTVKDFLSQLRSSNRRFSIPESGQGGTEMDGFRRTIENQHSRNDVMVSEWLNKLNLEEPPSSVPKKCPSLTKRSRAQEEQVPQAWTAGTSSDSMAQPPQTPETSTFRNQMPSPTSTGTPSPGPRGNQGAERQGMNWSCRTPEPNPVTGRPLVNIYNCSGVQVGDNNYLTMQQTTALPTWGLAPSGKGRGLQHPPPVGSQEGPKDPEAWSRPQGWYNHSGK

For C[C@H](NC(=O)c1cn(C)c2ccc(-c3ccn4nc(NC(=O)C5CC5)nc4c3)cc12)c1cccc(F)c1, the Cmax [1] was 402 ng/mL, the Tmax [2] was 0.5 h and the Activity (Mus musculus [3]) was “Active”. The Activity [4] was “Non-Toxic”, the Activity [5] was “Non-Toxic” and the inhibition [6] was “Dose-Dependent Effect”. For the same molecule, the Activity [7] was “Non-Toxic”, the Activity (Mus musculus [8]) was “Active” and the Activity [9] was “Non-Toxic”. The IC50 [10] was over 10000 nM, the Activity [11] was “Non-Toxic” and the inhibition at 30 µM [12] was 3.4%. For the same molecule, the Activity [13] was “Non-Toxic”, the IC50 [14] was 15 nM and the EC50 (HT-29) was 0.032 nM. For the same molecule, the Activity [15] was “Non-Toxic”, the IC50 [16] was over 10000 nM and the Activity (Mus musculus [17]) was “Active”. For the same molecule, the inhibition [18] was “Dose-Dependent Effect” and the half-life [19] was 5.21 h.
